Measured values from patent US7412284B2, “Apparatus for electroporation mediated delivery for drugs and genes” (Genetronics, Inc., priority 1997, dated 2008).

Tests used:
[1] = tested on: non-small cell lung cancer cell line (NSCLC), 177; test: EPT with bleomycin of NSCLC xenografts in nude mice; assay type: in vivo
[2] = tested on: basal cell carcinomas and melanomas; test: Clinical trials of bleomycin-EPT for basal cell carcinomas and melanomas; assay type: in vivo, humans; details: for % RESPONSE CR D′D / % RESPONSE CR D′E′ / TUMOR RESPONSE CR D′D / TUMOR RESPONSE CR D′E′: CR=complete response; for % RESPONSE NE D′D / % RESPONSE NE D′E′ / TUMOR RESPONSE NE D′D / TUMOR RESPONSE NE D′E′: NE=no effect
Text: The following examples illustrate the use of EPT in cell lines, animals and humans. Example 1 illustrates EPT in poorly differentiated human pancreatic tumors (Panc-3) xenografted subcutaneously on the flank of nude mice. […] Example 4 provides in vitro data for EPT utilizing low voltage (electric field) and long pulse length. The parameters for EPT are described in the examples; for Example 1 and for the head and neck clinical trials, the nominal electric field was 1300 V/cm and 6 pulses for 99-100 μsec, spaced at 1 second intervals. The clinical trials (Example 2) used similar parameters, however the electric field was 1130 V/cm. (Nominal electric field (V/cm) is applied voltage (V) across the needle pairs divided by the distance between the needle pairs (cm).) The Examples illustrate the use of EPT for effectively killing undesired cell populations (e.g., a tumor) in vitro and in vivo.
The effectiveness of bleomycin-EPT on the tumors was to be assessed by the end of the eight-week period using the same tumor response criteria as employed in Example 1.
The concentration of bleomycin administered was 5 U/1 mL. The dosages of bleomycin were administered as follows: […]

[3] = BCC nodules, PR=partial response
[4] = Mel nodules, PR=partial response
[5] = Other nodules, PR=partial response
[6] = Total nodules, PR=partial response

bleomycin
EPT treatment result ([1]; bleomycin + EPT, NSCLC xenograft): very encouraging results
tumor after retreatment ([1]; recurred tumor retreated at day 27, after 7 days): no evidence of tumor
% RESPONSE CR D′D ([2]; BCC nodules): 0%
% RESPONSE CR D′E′ ([2]; BCC nodules): 98%
TUMOR RESPONSE CR D′D ([2]; BCC nodules): 0/6
TUMOR RESPONSE CR D′E′ ([2]; BCC nodules): 43/44
% RESPONSE NE D′D ([2]; BCC nodules): 83%
% RESPONSE NE D′E′ ([2]; BCC nodules): 0%
TUMOR RESPONSE NE D′D ([2]; BCC nodules): 5/6
TUMOR RESPONSE NE D′E′ ([2]; BCC nodules, less than 50% reduction in tumor volume): 0/44
TUMOR RESPONSE PR D′E′ ([2]; BCC nodules, PR=50% or greater reduction in tumor volume): 1/44
% RESPONSE PR D′D [2, 3]: 17%
% RESPONSE PR D′E′ [2, 3]: 2%
TUMOR RESPONSE PR D′D [2, 3]: 1/6
% RESPONSE CR D′D ([2]; Mel nodules): 0%
% RESPONSE CR D′E′ ([2]; Mel nodules): 91%
TUMOR RESPONSE CR D′D ([2]; Mel nodules): 0/5
TUMOR RESPONSE CR D′E′ ([2]; Mel nodules): 53/58
% RESPONSE NE D′D ([2]; Mel nodules): 100%
% RESPONSE NE D′E′ ([2]; Mel nodules): 2%
TUMOR RESPONSE NE D′D ([2]; Mel nodules): 5/5
TUMOR RESPONSE NE D′E′ ([2]; Mel nodules): 1/58
% RESPONSE PR D′D [2, 4]: 0%
% RESPONSE PR D′E′ [2, 4]: 7%
TUMOR RESPONSE PR D′D [2, 4]: 0/5
TUMOR RESPONSE PR D′E′ [2, 4]: 4/58
% RESPONSE CR D′D ([2]; Other nodules): 0%
% RESPONSE CR D′E′ ([2]; Other nodules): 80%
TUMOR RESPONSE CR D′D ([2]; Other nodules): 0/3
TUMOR RESPONSE CR D′E′ ([2]; Other nodules): 4/5
% RESPONSE NE D′D ([2]; Other nodules): 100%
% RESPONSE NE D′E′ ([2]; Other nodules): 0%
TUMOR RESPONSE NE D′D ([2]; Other nodules): 3/3
TUMOR RESPONSE NE D′E′ ([2]; Other nodules): 0/5
% RESPONSE PR D′D [2, 5]: 0%
% RESPONSE PR D′E′ [2, 5]: 20%
TUMOR RESPONSE PR D′D [2, 5]: 0/3
TUMOR RESPONSE PR D′E′ [2, 5]: 1/5
% RESPONSE CR D′D ([2]; Total nodules): 0%
% RESPONSE CR D′E′ ([2]; Total nodules): 93%
TUMOR RESPONSE CR D′D ([2]; Total nodules): 0/14
TUMOR RESPONSE CR D′E′ ([2]; Total nodules): 100/107
% RESPONSE NE D′D ([2]; Total nodules): 93%
% RESPONSE NE D′E′ ([2]; Total nodules): 1%
TUMOR RESPONSE NE D′D ([2]; Total nodules): 13/14
TUMOR RESPONSE NE D′E′ ([2]; Total nodules): 1/107
% RESPONSE PR D′D [2, 6]: 7%
% RESPONSE PR D′E′ [2, 6]: 6%
TUMOR RESPONSE PR D′D [2, 6]: 1/14
TUMOR RESPONSE PR D′E′ [2, 6]: 6/107
